Test results: US12636291B2, “Compositions and methods relating to use of agonists of ALPHA5-containing GABAA receptors” (Centre for Addiction and Mental Health, priority 2019, dated 2026)

Key:
[1] = tested on: pyramidal cells in the CA1 region of the hippocampus; assay: Golgi staining morphological analysis of CA1 pyramidal cells; assay type: in vivo, mouse; details: for total spine counts, apical dendrites / total spine counts, basal dendrites: FIG. 19B; for overall spine density: FIG. 20A; for spine density, apical dendrites / spine density, basal dendrite: FIG. 20B; for spine density versus branch order, overall: FIG. 21A; for spine density versus branch order, basal dendrites: FIG. 21B; for spine density versus branch order, apical dendrites: FIG. 21C; for spine density at 30 um intervals from the soma, overall: FIG. 22A; for spine density at 30 um intervals from the soma, basal dendrites: FIG. 22B; for spine density at 30 um intervals from the soma, apical dendrites: FIG. 22C
Method: Details of the animals, materials, and methods used are provided following the discussion section below. Briefly, all studies discussed below were conducted using three groups of animals designated “Young” (2 months of age at the beginning of the 8-week study, 4 months of age at time of testing; “Old” (22 months of age at beginning of study, 24 months of age at time of testing); and “Treatment” (“Old” mice who received GL-II-73 in the drinking water for 8 weeks prior to evaluation of cognitive ability and pyramidal cell morphology). The last study further included a fourth group of animals, “Treatment+Washout” which were treated the same as the “Treatment” group except that the GL-II-73 was removed for a 1 week “wash-out” period prior to evaluation of pyramidal cell morphology.
We confirmed and extended these findings by conducting similar analyses of pyramidal cells in a different brain region, namely the CA1 region of the hippocampus, using the same animals. […] As observed above for the pyramidal cells of the PFC, the morphology of the CA1 pyramidal cells in the treatment group was very similar to that of the young mice. […] The positive correlation between the morphological changes observed in each of the three groups of animals in both regions of the brain, CA1 vs PFC brain regions is shown in FIGS. 11-12. This positive correlation of morphological changes across these two regions of the brain indicates a common factor underlying the effects in both regions.
We also performed the same morphological analyses of pyramidal cells in the CA1 region of the hippocampus for each group.
Drug preparation and administration: The compound GL-II-73 was administered in the drinking water for 8 weeks, and made fresh every other day to prevent any deterioration of the compound in the water at room temperature. The solution was prepared at 30 mg/kg for an estimated volume of 8 ml/mouse/day, based on previous calculations. For the pilot study in the 5×FAD mouse model, the compound GL-II-73 was prepared for intra peritoneal injection only, at a dose of 10 mg/kg. Vehicle solution was made of 85% distilled water, 14% propylene glycol and 1% tween-80.
Brain collection and Golgi staining: Twenty-four hours after the completion of the behavioral testing, mice were euthanized using cervical dislocation. Brains were carefully collected from the skull, rinsed with MilliQ water and immersed in the Golgi staining solution provided by Neurodigitech (San Diego, CA). Six hours after the beginning of the incubation, the solution was changed to provide fresh solution. Then brains were left incubating for 14 days at room temperature, in the dark. For better results, vials containing the brains were gently swirled 3 times a week. After the incubation period, the staining solution was discarded and replaced by a storage solution and brains (n=4 per group) were shipped to Neurodigitech for morphological analysis.
Sample selection criteria: The sampling process was conducted as follows: The investigators first 1) previewed the entire rostro-caudal axis of ROIs, under low-mag Zeiss objectives (10× and 20×), 2), compared and located those with the least truncations of distal dendrites as possible under high-mag Zeiss objectives (40× and 63×), 3), and then 4) used a Zeiss 100× objective with immersion oil to perform 3D dendritic reconstruction, followed by counting of the spines throughout the entire dendritic trees. The criteria for selecting candidate neurons for analysis were based on i) visualization of a completely filled soma with no overlap of neighboring soma and completely filled dendrites, ii) the tapering of most distal dendrites; iii) the visualization of the complete 3-D profile of dendritic trees using the 3-D display of imaging software. Neurons with incomplete impregnation and/or neurons with truncations due to the plane of sectioning were not collected. […]

heterozygous 5×FAD mice = assay: Spontaneous alternation in the Y-Maze, 5×FAD Alzheimer's disease model pilot; assay type: in vivo, mouse; details: 6 months of age, acute i.p. 10 mg/kg vs vehicle, FIG. 23
Method: A pilot study was performed in the 5×FAD mouse Alzheimer's disease model system using 15 heterozygous animals tested from the age of 4 to 6 months. The same animals were tested monthly for spontaneous alternation in the Y-Maze test. When they reached the age of 6 months, 50% of the animals were injected i.p. with vehicle or with GL-II-73 (10 mg/kg).
Animals: For the experiments described above, young (n=11, age 2 months) and old male mice (N=23) were purchased from Charles River. Old mice were obtained at the age of 9-10 months and were kept in the animal facility until they reached the age of 22 months. Young mice (2 months old) were purchased when old mice had already reached the age of 22 months. All animals were single housed. Experiments were performed on mice aged 2 months (“young”) or 22 months (“old”) at the beginning of the experimental protocol. The second set of experiments with the Washout group included 8 young mice and 22 old mice. Old mice were split into 3 groups of 7-8 between “Old”, “Old-treated” and “Old-Washout”. […]
Spontaneous alternation in the Y-Maze: Mice were tested in a Y maze test as an assessment of working memory. […] The alternation rate was calculated and was expressed as a percentage: […]

[2] = Table 3, Old, Treatment group, 4 samples
[3] = Table 3, Old, Washout group, 4 samples
[4] = first study, Old+Treatment mice
[5] = washout study, Old+Treatment vs Young mice, p>0.05
[6] = washout study, Washout vs Old mice, p<0.05
[7] = washout study, Old+Treatment vs Old mice, p<0.05

C#Cc1ccc2c(c1)C(c1ccccc1F)=N[C@H](C)c1c(C(=O)N(C)C)ncn1-2 (stereo in doubt) [GL-II-73, 8-ethynyl-6-(2-fluorophenyl)-N,N,4-trimethyl-4H-benzo[f]imidazo[1,5-a][1,4]diazepine-3-carboxamide]
Total segments ([1]; Table 3, washout study, Old, Treatment group (8 weeks GL-II-73), 4 samples): 1226
Overall spinal density [1, 2]: 1.07
Total lengths (microns) [1, 2]: 60170 microns
total spine counts [1, 2]: 64468
Total segments ([1]; Table 3, Old, Washout group (8 weeks GL-II-73, then 1 week wash-out), 4 samples): 1266
Overall spinal density [1, 3]: 1.10
Total lengths (microns) [1, 3]: 65954 microns
total spine counts [1, 3]: 72587
Frequency of Intersections × 30 um interval from soma, apical [1, 4]: at 150 um-180 um, apically
Frequency of Intersections × 30 um interval from soma, basal [1, 4]: higher frequency at 120 um-150 um, basally
Frequency of Intersections × 30 um interval from soma ([1]; first study, Old+Treatment vs Old mice): higher frequency of intersections at the middle (120 um to 180 um) of the dendritic field than Old mice
spine density ([1]; first study, treatment group vs untreated old mice): relatively higher spine density than the untreated group of old mice
total spine counts ([1]; washout study, FIG. 19A, Old+Treatment vs Young mice, p>0.05): no difference was found between Young and Old+Treatment as well as Washout mice
total spine counts ([1]; washout study, FIG. 19A, Washout (1 week after 8 weeks GL-II-73) vs Old mice, p<0.05): higher spine counts than Old mice
total spine counts, apical dendrites [1, 5]: no difference in total spine counts of both basal and apical dendrites between Young and Old+Treatment as well as Washout mice
total spine counts, basal dendrites [1, 5]: no difference in total spine counts of both basal and apical dendrites between Young and Old+Treatment as well as Washout mice
total spine counts, apical dendrites [1, 6]: higher spine counts of apical dendrites than Old mice
total spine counts, basal dendrites [1, 6]: higher spine counts of basal dendrites than Old mice
overall spine density [1, 7]: higher spine density than Old mice
overall spine density [1, 6]: higher spine density than Old mice
spine density, apical dendrites [1, 7]: Old mice exhibited a lower spine density than Young, Old+Treatment and Washout mice
spine density, basal dendrite [1, 7]: Old mice showed a significant decrease in the basal dendrite as compared to Young, Old+Treatment and Washout mice
spine density, apical dendrites [1, 6]: Old mice exhibited a lower spine density than Young, Old+Treatment and Washout mice
spine density, basal dendrite [1, 6]: Old mice showed a significant decrease in the basal dendrite as compared to Young, Old+Treatment and Washout mice
spine density versus branch order, overall [1, 7]: higher spine density at the 1st and 5th branch orders
spine density versus branch order, overall [1, 6]: higher spine density at the 1st and 3rd to 6th
spine density versus branch order, basal dendrites [1, 7]: higher density at the 1st branch order than Old mice
spine density versus branch order, basal dendrites [1, 6]: higher density at the 1st branch order than Old mice
spine density versus branch order, apical dendrites [1, 7]: higher density at the 1st order than Old mice
spine density versus branch order, apical dendrites [1, 6]: at the 4th and 5th orders than Old mice
spine density at 30 um intervals from the soma, overall [1, 7]: higher spine density at 30 um to 60 um and 120 um to 240 um from soma
spine density at 30 um intervals from the soma, overall [1, 6]: higher spine density at 30 um to 180 um from soma
spine density at 30 um intervals from the soma, basal dendrites [1, 7]: higher density at 30 um from soma than Old mice
spine density at 30 um intervals from the soma, basal dendrites [1, 6]: higher density at 30 um from soma than Old mice
spine density at 30 um intervals from the soma, apical dendrites [1, 7]: higher density at 120 um to 180 um from soma than Old mice
spine density at 30 um intervals from the soma, apical dendrites [1, 6]: higher spine density at 30 um to 60 um and 120 um to 210 um from soma than Old mice
alternation performance in the Y-Maze test (heterozygous 5×FAD mice): a reversal of this decrease in alternation performance in the GL-II-73 treated group, although also not reaching statistical significance
